Values joined by “and” are separate entries in the source; they are usually repeats but may differ in a detail not shown here. Identical values can stand only once.
Assay: Solid state stability under accelerated stability conditions (70° C./75% RH, one week), monitoring purity
Format: physicochemical
Settings: for Initial Purity: API purity before the accelerated stability stress test; for Solid state stability compared with amorphous free base and malonate salt: accelerated stability conditions 70° C./75% RH, one week; for Final Purity (post stress test): after one week at 70° C./75% RH, solid state; for Recommended storage condition for use as an API: assigned from the accelerated stability result
Procedure: The solid state stability is monitored using accelerated stability conditions (70° C./75% RH) for one week and then monitoring appearance, purity and form change. These accelerated conditions are used to assign an initial use period for the API.

Initial Purity	Solid state stability compared with amorphous free base and malonate salt	Final Purity (post stress test)	Initial Purity (listed as malonate salt) [%]	Final Purity (post stress test) (listed as malonate salt) [%]	Compound	Recommended storage condition for use as an API
99.1% and 99.6%	significantly improved	97.7% and 99.6%	–	–	C=CC(=O)N1C[C@H](Nc2ncnc3[nH]ccc23)CC[C@@H]1C.Cc1ccc(S(=O)(=O)O)cc1 [Tosylate salt, 1-((2S,5R)-5-((7H-Pyrrolo[2,3-d]pyrimidin-4-yl)amino)-2-meth-ylpiperidin-1-yl)prop-2-en-1-one p-Toluenesulfonic Acid Salt (Form 1)]	would not require refrigerated storage conditions
99.5%	–	81.6%	99.5	81.6	C=CC(=O)N1C[C@H](Nc2ncnc3[nH]ccc23)CC[C@@H]1C.O=C(O)CC(=O)O [Malonate salt, 1-((2S,5R)-5-((7H-Pyrrolo[2,3-d]pyrimidin-4-yl)amino)-2-methyl-piperidin-1-yl)prop-2-en-1-one Malonic Acid Salt (Form 1)]	would require refrigeration
99.3%	–	41.3& %	–	–	C=CC(=O)N1C[C@H](Nc2ncnc3[nH]ccc23)CC[C@@H]1C [Amorphous Free base, 1-((2S,5R)-5-((7H-Pyrrolo[2,3-d]pyrimidin-4-yl)amino)-2-methylpiperidin-1-yl)prop-2-en-1-one]	–
99.6%	significantly improved	99.5%	–	–	C=CC(=O)N1C[C@H](Nc2ncnc3[nH]ccc23)CC[C@@H]1C.O=P(O)(O)O [Phosphate salt, 1-((2S,5R)-5-((7H-Pyrrolo[2,3-d]pyrimidin-4-yl)amino)-2-meth-ylpiperidin-1-yl)prop-2-en-1-one Phosphoric Acid Salt (Form A)]	–

Reference: US12116368B2, “Pyrrolo[2,3-d]pyrimidine tosylate salt, crystalline form thereof and manufacturing process and intermediates thereto” (Pfizer Inc., priority 2018, dated 2024)
